Counter-ions that a name gives are not always drawn.
The compounds below were run against T1, ArsR (Helicobacter pylori, UniProt O24973) (assay: isothermal titration calorimetry). Conditions: read-out: ITC ^a / Kd.
T1 construct: expressed in E. coli BL21(DE3)
Assay type: binding

T1 sequence (O24973 whole entry): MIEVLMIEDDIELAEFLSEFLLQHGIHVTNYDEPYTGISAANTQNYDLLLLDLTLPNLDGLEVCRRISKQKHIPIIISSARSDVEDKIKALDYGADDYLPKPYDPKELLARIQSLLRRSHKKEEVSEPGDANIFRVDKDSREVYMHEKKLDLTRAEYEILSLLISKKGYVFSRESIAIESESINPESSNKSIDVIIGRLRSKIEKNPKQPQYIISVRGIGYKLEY

Row | Compound | Kd
1 | C[C@H](CCC(=O)O)[C@H]1CC[C@H]2[C@@H]3CC[C@@H]4C[C@H](O)CC[C@]4(C)[C@H]3CC[C@]12C [Lithocholic acid] | 4.9 µM
2 | CCCCCN(CCCCC)C(=O)C(CCC(=O)O)NC(=O)c1ccc(Cl)c(Cl)c1 (stereo not drawn) [Lorglumide sodium salt] | 0.67 µM
3 | CC[N+](C)(CC)CCC[n+]1c(-c2ccccc2)c2cc(N)ccc2c2ccc(N)cc21 [Propidium iodide] | 18 µM
